Measured values as given in the supplement of paper PMC10307832.

Columns and labels:
Test in all cases: relative viability (nuclei count vs DMSO), 5 days (fraction); higher = more cells survive
[1] = compound: CC[C@H](C)N1C=C(C2=C(C=C(C=C21)C3=CN=C(C=C3)N4CCNCC4)C(=O)NCC5=C(C=C(NC5=O)C)C)C [GSK126] + CS(=O)(=O)CCNCc1ccc(-c2ccc3ncnc(Nc4ccc(OCc5cccc(F)c5)c(Cl)c4)c3c2)o1 [Lapatinib] (partner 2 µM)
Summary of the method: (§1)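 Lung cancer cell lines were pin-tool dosed in 1536-well plates on the day after seeding, with either a lone drug or a fixed anchor-drug dose plus five library-drug doses (not always all listed) in √10 steps. Nuclei were counted on 4× images after 5 days. Relative viability is the ratio of treated-well to vehicle-well nuclei counts, with each value a median of duplicate plates.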

[2] = compound: NS(=O)(=O)OC[C@@H]1C[C@@H](n2ccc3c(N[C@H]4CCc5ccccc54)ncnc32)C[C@@H]1O [MLN4924] + O=C(c1cc(Cc2n[nH]c(=O)c3ccccc23)ccc1F)N1CCN(C(=O)C2CC2)CC1 [Olaparib] (partner 8 µM)
Summary of the method: as §1

[3] = compound: C1CC(C1)(C(=O)O)C(=O)O.[NH2-].[NH2-].[Pt+2] [Carboplatin] + N=C(N)NC(=N)NCCc1ccccc1 [Phenformin] (partner 250 µM)
Summary of the method: as §1

[4] = compound: NS(=O)(=O)OC[C@@H]1C[C@@H](n2ccc3c(N[C@H]4CCc5ccccc54)ncnc32)C[C@@H]1O [MLN4924] + N=C(N)NC(=N)NCCc1ccccc1 [Phenformin] (partner 250 µM)
Summary of the method: as §1

Row | Cell Line | relative viability ([1]; first compound 0.08 µM) | relative viability ([1]; first compound 0.253 µM) | relative viability ([1]; first compound 0.8 µM) | relative viability ([1]; first compound 2.53 µM) | relative viability ([1]; first compound 8 µM) | relative viability ([2]; first compound 0.04 µM) | relative viability ([2]; first compound 0.1265 µM) | relative viability ([2]; first compound 0.4 µM) | relative viability ([2]; first compound 1.265 µM) | relative viability ([2]; first compound 4 µM) | relative viability ([3]; first compound 0.08 µM) | relative viability ([3]; first compound 0.253 µM) | relative viability ([3]; first compound 0.8 µM) | relative viability ([3]; first compound 2.53 µM) | relative viability ([3]; first compound 8 µM) | relative viability ([4]; first compound 0.04 µM) | relative viability ([4]; first compound 0.1265 µM) | relative viability ([4]; first compound 0.4 µM) | relative viability ([4]; first compound 1.265 µM) | relative viability ([4]; first compound 4 µM)
1 | EBC-1 | 0.232 | 0.188 | 0.178 | 0.21 | 0.202 | 0.558 | 0.259 | 0.134 | 0.0918 | 0.115 |  |  |  |  |  |  |  |  |  | 
2 | IA-LM | 1 | 0.717 | 0.708 | 0.762 | 0.892 | 0.458 | 0.297 | 0.227 | 0.0664 | 0.0734 |  |  |  |  |  |  |  |  |  | 
3 | LCLC-103H |  |  |  |  |  | 0.717 | 0.615 | 0.665 | 0.292 | 0.293 | 0.325 | 0.357 | 0.347 | 0.32 | 0.348 | 0.358 | 0.368 | 0.347 | 0.157 | 0.143
4 | NCI-H441 |  |  |  |  |  | 0.567 | 0.426 | 0.296 | 0.143 | 0.169 | 0.769 | 0.963 | 1 | 0.876 | 0.839 | 0.79 | 0.554 | 0.333 | 0.211 | 0.227
5 | NCI-H522 |  |  |  |  |  | 0.568 | 0.495 | 0.485 | 0.288 | 0.322 | 0.516 | 0.679 | 0.648 | 0.686 | 0.64 | 0.642 | 0.676 | 0.454 | 0.424 | 0.293
6 | NCI-H1299 | 0.968 | 0.997 | 0.952 | 0.931 | 0.929 | 0.912 | 0.667 | 0.416 | 0.201 | 0.172 |  |  |  |  |  |  |  |  |  | 
7 | NCI-H1563 | 1.1 | 1.04 | 0.957 | 0.999 | 0.869 |  |  |  |  |  | 0.691 | 0.668 | 0.672 | 0.7 | 0.631 | 0.832 | 0.87 | 0.666 | 0.498 | 0.57
8 | NCI-H1623 |  |  |  |  |  |  |  |  |  |  | 0.586 | 0.609 | 0.586 | 0.534 | 0.513 | 0.503 | 0.479 | 0.39 | 0.274 | 0.248
9 | NCI-H1648 |  |  |  |  |  | 0.535 | 0.398 | 0.382 | 0.253 | 0.274 |  |  |  |  |  |  |  |  |  | 
10 | NCI-H1703 | 1.08 | 1.14 | 0.917 | 1.23 | 1.09 | 0.332 | 0.174 | 0.156 | 0.145 | 0.135 |  |  |  |  |  |  |  |  |  | 
11 | NCI-H2342 |  |  |  |  |  | 0.432 | 0.425 | 0.381 | 0.391 | 0.352 | 0.759 | 0.709 | 0.616 | 0.638 | 0.615 | 0.705 | 0.661 | 0.613 | 0.551 | 0.501
12 | SW 900 |  |  |  |  |  |  | 0.594 | 0.429 | 0.233 | 0.228 | 0.713 | 0.561 | 0.608 | 0.431 | 0.414 | 0.205 | 0.483 | 0.258 | 0.15 | 0.128
